Source: EP3623369A1, “NOVEL MORPHOLINYL AMINE COMPOUNDS FOR THE TREATMENT OF AUTOIMMUNE DISEASE” (F. Hoffmann-La Roche AG, priority 2018, dated 2020)

Legend:
human TLR8 = molecular target: T1, human TLR8 (Homo sapiens, UniProt Q9NR97); assay: HEK293-Blue-hTLR-8 cells assay (SEAP reporter, R848 stimulation); type: cell-based; conditions: HEK293-Blue-hTLR8 cells, R848, 20 hrs; 0.003 is the lowest tested concentration; read-out: HEK/hTLR8 IC50
T1 sequence (Q9NR97 27-1041): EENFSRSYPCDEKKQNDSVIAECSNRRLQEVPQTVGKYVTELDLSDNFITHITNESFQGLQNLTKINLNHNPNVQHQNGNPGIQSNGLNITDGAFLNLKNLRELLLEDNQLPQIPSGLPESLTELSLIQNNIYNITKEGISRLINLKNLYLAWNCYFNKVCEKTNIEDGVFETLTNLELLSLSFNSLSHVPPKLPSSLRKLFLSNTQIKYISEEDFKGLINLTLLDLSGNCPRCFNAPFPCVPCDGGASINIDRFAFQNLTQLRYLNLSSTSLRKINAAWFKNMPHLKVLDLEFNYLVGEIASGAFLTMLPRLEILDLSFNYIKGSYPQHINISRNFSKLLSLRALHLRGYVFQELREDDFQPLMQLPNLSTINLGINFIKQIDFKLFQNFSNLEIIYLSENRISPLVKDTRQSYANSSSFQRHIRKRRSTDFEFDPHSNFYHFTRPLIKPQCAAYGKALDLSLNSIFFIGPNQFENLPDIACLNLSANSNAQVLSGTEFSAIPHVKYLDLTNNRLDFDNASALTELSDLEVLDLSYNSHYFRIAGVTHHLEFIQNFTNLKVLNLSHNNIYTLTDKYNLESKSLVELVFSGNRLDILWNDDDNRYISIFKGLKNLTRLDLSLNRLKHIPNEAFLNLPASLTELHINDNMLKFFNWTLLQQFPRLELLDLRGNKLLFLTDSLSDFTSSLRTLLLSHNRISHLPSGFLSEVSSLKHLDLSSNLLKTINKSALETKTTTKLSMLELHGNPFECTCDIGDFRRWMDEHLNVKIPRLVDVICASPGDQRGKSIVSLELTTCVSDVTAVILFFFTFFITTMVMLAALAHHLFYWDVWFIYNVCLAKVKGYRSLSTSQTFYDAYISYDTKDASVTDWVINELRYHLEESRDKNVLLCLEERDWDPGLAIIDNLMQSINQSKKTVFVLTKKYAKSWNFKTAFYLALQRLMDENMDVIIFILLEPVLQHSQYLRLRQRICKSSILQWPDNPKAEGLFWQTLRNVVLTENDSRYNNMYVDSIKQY
Procedure, shortened: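 Antagonist mode: HEK293-Blue-hTLR8 cells at 250,000–450,000 cells/mL in DMEM with 10% FBS were treated with serially diluted compound (1% DMSO final) plus R848 (10 µL of 60 µM stock) for 20 h at 37 °C. NF-κB/AP-1-driven SEAP in supernatant measured with QUANTI-Blue, 2 h at 37 °C, absorbance 620–655 nm.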

[1] = Human microsome stability assay; type: in vitro ADME; conditions: human liver microsomes, 1 µM test compound, 0.5 mg/mL protein, 37°C, up to 30 minutes
Experimental: Human microsome stability assay
The human microsomal stability assay is used for early assessment of metabolic stability of a test compound in human liver microsomes.
Human liver microsomes (Cat.NO.: 452117, Corning, USA;Cat.NO.:H2610, Xenotech, USA) were preincubated with test compound for 10 minutes at 37°C in 100 mM potassium phosphate buffer, pH 7.4. The reactions were initiated by adding NADPH regenerating system. The final incubation mixtures contained 1 µM test compound, 0.5 mg/mL liver microsomal protein, 1 mM MgCl2, 1 mM NADP, 1 unit/mL isocitric dehydrogenase and 6 mM isocitric acid in 100 mM potassium phosphate buffer, pH 7.4. After incubation times of 0, 3, 6, 9, 15 and 30 minutes at 37°C, 300 µL of cold acetonitrile (including internal standard) was added to 100 µL incubation mixture to terminate the reaction. Following precipitation and centrifugation, the amount of compound remaining in the samples were determined by LC-MS/MS. Controls of no NADPH regenerating system at zero and 30 minutes were also prepared and analyzed. […] Table 3. Human liver microsome stability of the compounds of present invention

| Compound | IC50 (human TLR8) [nM] | Clearance of Human microsome [1] [mL/min/kg] |
| --- | --- | --- |
| C[C@@H]1CN(c2ccc(C#N)c3ncccc23)C[C@H](CNCc2ccccc2)O1 [ER-886509, reference compound] | 139 | 15.2 |
| C[C@@H]1CN(c2ccc(C#N)n3nccc23)C[C@H](CNCc2ccc(N3CCNCC3)cc2)O1 [Example 16, 4-[(2R,6S)-2-methyl-6-[[(4-piperazin-1-ylphenyl)methylamino]methyl]morpholin-4-yl]pyrazolo[1,5-a]pyridine-7-carbonitrile] | 16 | 7.31 |
| C[C@@H]1CN(c2ccc(C#N)c3ncccc23)C[C@H](CN2CCc3cc(N4CCNCC4)ccc3C2)O1 [Example 19, 5-[(2R,6S)-2-methyl-6-[(6-piperazin-1-yl-3,4-dihydro-1H-isoquinolin-2-yl)methyl]morpholin-4-yl]quinoline-8-carbonitrile] | 6 | 6.17 |
| C[C@@H]1CN(c2ccc(C#N)c3ncccc23)C[C@H](CN2Cc3ccc(N4CCNCC4)cc3C2)O1 [Example 21, 5-[(2R,6S)-2-methyl-6-[(5-piperazin-1-ylisoindolin-2-yl)methyl]morpholin-4-yl]quinoline-8-carbonitrile] | 5 | 6.15 |
| C[C@@H]1CN(c2ccc(C#N)c3ncccc23)C[C@H](CN2Cc3ccc(N4CC5(CCN5)C4)cc3C2)O1 [Example 55, 5-[(2S,6R)-2-[[5-(1,6-diazaspiro[3.3]heptan-6-yl)isoindolin-2-yl]methyl]-6-methyl-morpholin-4-yl]quinoline-8-carbonitrile] | 7 | 7.09 |
| C[C@@H]1CN(c2ccc3c(c2)CN(C[C@H]2CN(c4ccc(C#N)c5ncccc45)C[C@@H](C)O2)C3)CCN1 [Example 62, 5-[(2R,6S)-2-methyl-6-[[5-[(3R)-3-methylpiperazin-1-yl]isoindolin-2-yl]methyl]morpholin-4-yl] quinoline-8-carbonitrile] | 5 | 6.39 |
| C[C@@H]1CN(c2ccc(C#N)c3ncccc23)C[C@H](CN2Cc3ccccc3C2)O1 [Example R3, 5-[(2S,6R)-2-(isoindolin-2-ylmethyl)-6-methyl-morpholin-4-yl]quinoline-8-carbonitrile, reference compound] | 146 | 15.4 |
